Experimental data from US20080145465A1, “Sesquiterpene lactone extract from artemisia leucodes for reducing inflammation and down-regulating pro-inflammatory gene expression” (priority 2006, published 2008).
Where “and” joins values, the source holds several entries; their conditions need not be identical. Equal values may be shown once.

Key:
[1] = system: cotton pellet infiltrate and granuloma in rats; test: Cotton granuloma test; assay type: in vivo; settings: 200 mg/kg oral
Procedure: Free access to standard rat chow and water was provided throughout the test. Three sterile cotton pellets (10 mg) were implanted hypodermically into the groin and abdominal area of rats under Nembutal (Sigma, St. Louis, Mo.) narcosis (40 mg/kg intraperitoneally). AL-1, aspirin (Sigma, St. Louis, Mo.), and vehicle control (5% ethanol) were administered by oral gavage one day before implantation, the day of implantation (1 hour before operation), and subsequently for six days after the surgery, once per day. On the seventh day after surgery, rats were euthanized by means of a large dose of Nembutal (70 mg/kg). Cotton pellets were removed and fresh weights were recorded. The cotton pellets were then were placed into an oven (60° C.) for 24 hours and weighed again.

[2] = system: carrageenan-induced rat paw edema; test: Carrageenan-induced rat paw edema; assay type: in vivo, Wistar rats; settings: 200 mg/kg oral gavage, n = 5
Procedure: Groups of five adult male and female Wistar rats with body weights from 136 to 170 g were used for this study. Rats were housed five animals per cage in a room kept at 24-26° C. and fed ad libitum. Before the experiment began, rat paw sizes were recorded by measuring paw volume three times on each animal using a plethysmometer (Ugo Basile, Comerio VA, Italy). The values were averaged to give a baseline paw size value. To start the experiment, animals were given a subcutaneous injection of 1% carrageenan (100 μl; Sigma, St. Louis, Mo.) in the area of the back paw to induce an acute inflammatory reaction (paw edema). One hour after carrageenan injection, rats were orally gavaged with AL-1, aspirin, or vehicle control (5% ethanol). Paw size was measured at three hours and five hours after injection. The increase in paw edema at each time point was determined by comparison with paw volume measured pre-injection. Inhibition of edema was calculated by comparison with vehicle control at the same time point.

[3] = system: nitric oxide (NO) production from RAW macrophages; test: Griess assay for NO production by LPS-stimulated RAW macrophages; assay type: cell-based, murine; settings: at 10 μM; positive control
COX-2 = target: T1, COX-2 (Ovis aries, UniProt P79208); test: Colorimetric COX inhibitor screening assay, COX-2; assay type: biochemical, ovine
T1 construct: purchased Cayman Chemical Company
T1 sequence (P79208 17-603): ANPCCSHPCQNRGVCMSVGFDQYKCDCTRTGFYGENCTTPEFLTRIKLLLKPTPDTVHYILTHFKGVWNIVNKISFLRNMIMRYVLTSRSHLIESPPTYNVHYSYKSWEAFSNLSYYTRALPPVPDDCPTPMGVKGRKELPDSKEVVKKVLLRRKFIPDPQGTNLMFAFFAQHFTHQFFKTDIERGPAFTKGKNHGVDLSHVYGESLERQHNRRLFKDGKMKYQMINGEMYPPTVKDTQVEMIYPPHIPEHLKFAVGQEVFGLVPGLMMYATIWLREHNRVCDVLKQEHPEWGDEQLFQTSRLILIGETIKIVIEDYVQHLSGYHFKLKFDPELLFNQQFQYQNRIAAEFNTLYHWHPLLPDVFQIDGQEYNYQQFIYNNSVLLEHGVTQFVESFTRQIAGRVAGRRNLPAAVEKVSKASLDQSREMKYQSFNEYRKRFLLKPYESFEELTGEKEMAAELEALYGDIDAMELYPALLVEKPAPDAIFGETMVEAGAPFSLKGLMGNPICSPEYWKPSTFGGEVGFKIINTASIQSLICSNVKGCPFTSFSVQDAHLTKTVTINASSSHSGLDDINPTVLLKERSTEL
Procedure: An ovine COX inhibitor screening assay (Cayman Chemical Company, Ann Arbor, Mich.) was used to measure inhibition of purified COX-1 and COX-2. This assay measures the peroxidase component of cyclooxygenases colorimetrically by monitoring the appearance of oxidized N,N,N′,N′-tetramethyl-p-phenylenediamine (TMPD) at 590 nm. Tablets of Vioxx (rofecoxib; Merck & Co., Inc., Whitehouse Station, N.J.) were ground and dissolved in methanol (1 mg/mL) to use as a positive control. AL-1, leukomisin, and austricin were also dissolved in methanol at 1 mg/mL. The assay was performed following manufacturer instructions. Vioxx, vehicle (100% initial activity), or treatments were added to a 96-well plate along with 180 μL assay mixture provided by the manufacturer containing 150 μL assay buffer, 10 μL heme, and 10 μL enzyme (COX-1 or COX-2). A background correction row received no enzyme and 10 μL additional assay buffer. After 5 min incubation at room temp, 20 μL of a colorimetric substrate solution containing TMPD and 20 μL arachadonic acid diluted in assay buffer were added to the plate. The plate was incubated for 5 min and the absorbance was read at 590 nm using a microplate reader (Molecular Devices, Sunnyvale, Calif.). To calculate percent inhibition, average absorbance was calculated for each sample (n=3). The background blank well absorbance was subtracted from each sample.
[(100% Initial activity-Blank)−(Treatment-Blank)/(100% Initial activity-Blank)]*100

SMILES	reduction of granuloma [1] [%]	reduction of infiltrate [1] [%]	granuloma (dry weight of pellet) ([1]; once per day, vehicle control 38 ± 7 mg) [mg]	infiltrate (wet weight of pellet) ([1]; once per day, vehicle control 139 ± 10 mg) [mg]	inhibition of paw edema vs vehicle control ([2]; 3 h after carrageenan)	inhibition of paw edema vs vehicle control ([2]; 5 h after carrageenan)	NO production, % of control [3]	IC50 (COX-2) [µM]
CC(=O)Oc1ccccc1C(=O)O [aspirin]	44	34	21 ± 3	92 ± 12	53% and 53 ± 1 %	56% and 56 ± 1 %	69 % of control	–
CS(=O)(=O)c1ccc(C2=C(c3ccccc3)C(=O)OC2)cc1 [Vioxx, rofecoxib]	–	–	–	–	–	–	–	40
